Experiment in all cases: Nanosyn kinase profiling
Format in all cases: biochemical
What all share (conditions): read-out: Percentage inhibition; for inhibition at 0.1 µM: 0.1 µM inhibitor; for inhibition at 1 µM: 1 µM inhibitor

One assay has as its target T1, CDK3/cycE (Homo sapiens, UniProt Q00526).
T1 construct: purchased Nanosyn (enzymatic panel); SGC in-house recombinant human kinases (DSF panel); Invitrogen (ALK1-6)
Summed up:
(§1)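 Percent inhibition of each kinase was measured with the inhibitor at 0.1 µM and at 1 µM, as part of a 200-kinase human selectivity panel.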

The target of the next assay is T2, PAK3 (Homo sapiens, UniProt O75914).
T2 construct: purchased Nanosyn (enzymatic panel); SGC in-house recombinant human kinases (DSF panel); Invitrogen (ALK1-6)
Summed up: as §1

For another assay, the target named is T3, FGFR1 (Homo sapiens, UniProt P11362).
T3 construct: purchased Nanosyn (enzymatic panel); SGC in-house recombinant human kinases (DSF panel); Invitrogen (ALK1-6)
Summed up:
as §1

A further assay concerns the target T4, GSK3β (Homo sapiens, UniProt P49841).
T4 construct: purchased Nanosyn (enzymatic panel); SGC in-house recombinant human kinases (DSF panel); Invitrogen (ALK1-6)
Summed up: as §1

In a further assay the target is T5, EPHA3 (Homo sapiens, UniProt P29320).
T5 construct: purchased Nanosyn (enzymatic panel); SGC in-house recombinant human kinases (DSF panel); Invitrogen (ALK1-6)
T5 sequence (P29320 21-983): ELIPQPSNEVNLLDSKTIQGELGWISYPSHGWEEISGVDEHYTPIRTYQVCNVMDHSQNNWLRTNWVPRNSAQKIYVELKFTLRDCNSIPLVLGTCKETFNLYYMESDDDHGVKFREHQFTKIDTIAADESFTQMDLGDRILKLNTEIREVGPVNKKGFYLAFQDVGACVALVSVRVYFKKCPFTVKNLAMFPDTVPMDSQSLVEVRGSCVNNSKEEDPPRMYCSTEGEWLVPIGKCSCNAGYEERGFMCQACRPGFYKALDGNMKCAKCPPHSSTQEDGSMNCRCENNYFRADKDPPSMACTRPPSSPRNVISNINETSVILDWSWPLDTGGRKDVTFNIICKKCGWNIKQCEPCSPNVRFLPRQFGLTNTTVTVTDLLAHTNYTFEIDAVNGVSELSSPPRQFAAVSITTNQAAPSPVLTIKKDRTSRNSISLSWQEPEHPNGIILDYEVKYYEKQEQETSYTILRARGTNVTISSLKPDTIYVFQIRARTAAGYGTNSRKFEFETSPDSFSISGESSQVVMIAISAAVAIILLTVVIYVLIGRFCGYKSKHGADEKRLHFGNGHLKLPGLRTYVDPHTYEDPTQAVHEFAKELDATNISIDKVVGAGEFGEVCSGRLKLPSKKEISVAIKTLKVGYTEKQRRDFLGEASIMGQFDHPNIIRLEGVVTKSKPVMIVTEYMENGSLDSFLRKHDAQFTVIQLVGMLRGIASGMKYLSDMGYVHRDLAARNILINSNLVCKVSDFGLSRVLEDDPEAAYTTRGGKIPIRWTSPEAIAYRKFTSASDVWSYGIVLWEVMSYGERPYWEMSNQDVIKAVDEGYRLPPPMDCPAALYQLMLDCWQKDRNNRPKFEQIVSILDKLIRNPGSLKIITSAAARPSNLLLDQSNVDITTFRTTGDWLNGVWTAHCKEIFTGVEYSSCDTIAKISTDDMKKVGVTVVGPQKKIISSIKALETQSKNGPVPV
Summed up:
as §1

The target in another assay is T6, CHEK1 (Homo sapiens, UniProt O14757).
T6 construct: purchased Nanosyn (enzymatic panel); SGC in-house recombinant human kinases (DSF panel); Invitrogen (ALK1-6)
T6 sequence (O14757 1-476): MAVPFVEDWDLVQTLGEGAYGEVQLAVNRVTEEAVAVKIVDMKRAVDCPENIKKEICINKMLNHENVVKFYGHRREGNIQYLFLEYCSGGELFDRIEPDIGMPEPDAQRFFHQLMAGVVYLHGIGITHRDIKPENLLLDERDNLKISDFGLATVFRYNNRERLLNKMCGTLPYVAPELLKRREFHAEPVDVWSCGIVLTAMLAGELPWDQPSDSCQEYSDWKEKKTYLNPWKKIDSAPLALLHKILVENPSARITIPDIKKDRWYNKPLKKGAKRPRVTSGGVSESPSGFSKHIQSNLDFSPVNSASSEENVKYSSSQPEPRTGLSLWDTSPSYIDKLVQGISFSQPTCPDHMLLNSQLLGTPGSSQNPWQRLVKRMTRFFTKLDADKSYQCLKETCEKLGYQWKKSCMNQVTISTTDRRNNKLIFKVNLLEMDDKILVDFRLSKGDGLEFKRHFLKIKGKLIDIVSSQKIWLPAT
Summed up: as §1

Another assay addresses T7, TRKC (Homo sapiens, UniProt Q16288).
T7 construct: purchased Nanosyn (enzymatic panel); SGC in-house recombinant human kinases (DSF panel); Invitrogen (ALK1-6)
Summed up:
as §1

In another assay the target is T8, PDK1 (Homo sapiens, UniProt O15530).
T8 construct: purchased Nanosyn (enzymatic panel); SGC in-house recombinant human kinases (DSF panel); Invitrogen (ALK1-6)
T8 sequence (O15530 1-556): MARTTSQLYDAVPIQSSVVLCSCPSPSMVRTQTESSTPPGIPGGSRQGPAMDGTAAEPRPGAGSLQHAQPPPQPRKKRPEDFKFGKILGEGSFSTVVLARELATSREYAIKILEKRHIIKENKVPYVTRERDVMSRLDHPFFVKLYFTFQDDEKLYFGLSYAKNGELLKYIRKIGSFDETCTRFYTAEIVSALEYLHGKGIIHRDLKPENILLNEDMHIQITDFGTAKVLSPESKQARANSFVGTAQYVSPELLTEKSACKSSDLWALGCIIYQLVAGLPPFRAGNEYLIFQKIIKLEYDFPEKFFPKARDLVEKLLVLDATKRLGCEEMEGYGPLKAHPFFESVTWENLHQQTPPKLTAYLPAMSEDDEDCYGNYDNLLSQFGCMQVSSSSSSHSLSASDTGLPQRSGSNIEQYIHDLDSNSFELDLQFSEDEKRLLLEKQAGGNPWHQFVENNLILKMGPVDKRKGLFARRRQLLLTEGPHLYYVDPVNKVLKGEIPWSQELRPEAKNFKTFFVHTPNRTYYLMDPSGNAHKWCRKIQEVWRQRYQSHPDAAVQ
Summed up: as §1

A further assay deals with T9, ALK (Homo sapiens, UniProt Q9UM73).
T9 construct: purchased Nanosyn (enzymatic panel); SGC in-house recombinant human kinases (DSF panel); Invitrogen (ALK1-6)
Summed up:
as §1

In the next assay the target is T10, RSK1 (Homo sapiens, UniProt Q15418).
T10 construct: purchased Nanosyn (enzymatic panel); SGC in-house recombinant human kinases (DSF panel); Invitrogen (ALK1-6)
Summed up:
as §1

T2 sequence (O75914 whole entry): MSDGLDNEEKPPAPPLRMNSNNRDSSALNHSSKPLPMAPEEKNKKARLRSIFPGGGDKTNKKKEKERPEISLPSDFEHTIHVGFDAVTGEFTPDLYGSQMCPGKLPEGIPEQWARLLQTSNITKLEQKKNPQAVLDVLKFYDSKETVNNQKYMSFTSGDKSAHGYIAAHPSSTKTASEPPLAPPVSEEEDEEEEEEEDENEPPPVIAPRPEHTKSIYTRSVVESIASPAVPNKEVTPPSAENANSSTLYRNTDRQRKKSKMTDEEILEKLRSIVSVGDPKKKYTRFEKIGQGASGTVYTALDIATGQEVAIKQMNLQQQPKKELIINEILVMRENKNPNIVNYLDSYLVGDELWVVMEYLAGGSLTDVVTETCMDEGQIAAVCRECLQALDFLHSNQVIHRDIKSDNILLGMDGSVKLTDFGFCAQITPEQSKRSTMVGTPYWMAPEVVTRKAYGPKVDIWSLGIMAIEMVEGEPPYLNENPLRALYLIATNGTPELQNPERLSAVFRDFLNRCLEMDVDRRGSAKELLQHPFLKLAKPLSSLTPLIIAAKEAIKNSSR
T9 sequence (Q9UM73 19-1620): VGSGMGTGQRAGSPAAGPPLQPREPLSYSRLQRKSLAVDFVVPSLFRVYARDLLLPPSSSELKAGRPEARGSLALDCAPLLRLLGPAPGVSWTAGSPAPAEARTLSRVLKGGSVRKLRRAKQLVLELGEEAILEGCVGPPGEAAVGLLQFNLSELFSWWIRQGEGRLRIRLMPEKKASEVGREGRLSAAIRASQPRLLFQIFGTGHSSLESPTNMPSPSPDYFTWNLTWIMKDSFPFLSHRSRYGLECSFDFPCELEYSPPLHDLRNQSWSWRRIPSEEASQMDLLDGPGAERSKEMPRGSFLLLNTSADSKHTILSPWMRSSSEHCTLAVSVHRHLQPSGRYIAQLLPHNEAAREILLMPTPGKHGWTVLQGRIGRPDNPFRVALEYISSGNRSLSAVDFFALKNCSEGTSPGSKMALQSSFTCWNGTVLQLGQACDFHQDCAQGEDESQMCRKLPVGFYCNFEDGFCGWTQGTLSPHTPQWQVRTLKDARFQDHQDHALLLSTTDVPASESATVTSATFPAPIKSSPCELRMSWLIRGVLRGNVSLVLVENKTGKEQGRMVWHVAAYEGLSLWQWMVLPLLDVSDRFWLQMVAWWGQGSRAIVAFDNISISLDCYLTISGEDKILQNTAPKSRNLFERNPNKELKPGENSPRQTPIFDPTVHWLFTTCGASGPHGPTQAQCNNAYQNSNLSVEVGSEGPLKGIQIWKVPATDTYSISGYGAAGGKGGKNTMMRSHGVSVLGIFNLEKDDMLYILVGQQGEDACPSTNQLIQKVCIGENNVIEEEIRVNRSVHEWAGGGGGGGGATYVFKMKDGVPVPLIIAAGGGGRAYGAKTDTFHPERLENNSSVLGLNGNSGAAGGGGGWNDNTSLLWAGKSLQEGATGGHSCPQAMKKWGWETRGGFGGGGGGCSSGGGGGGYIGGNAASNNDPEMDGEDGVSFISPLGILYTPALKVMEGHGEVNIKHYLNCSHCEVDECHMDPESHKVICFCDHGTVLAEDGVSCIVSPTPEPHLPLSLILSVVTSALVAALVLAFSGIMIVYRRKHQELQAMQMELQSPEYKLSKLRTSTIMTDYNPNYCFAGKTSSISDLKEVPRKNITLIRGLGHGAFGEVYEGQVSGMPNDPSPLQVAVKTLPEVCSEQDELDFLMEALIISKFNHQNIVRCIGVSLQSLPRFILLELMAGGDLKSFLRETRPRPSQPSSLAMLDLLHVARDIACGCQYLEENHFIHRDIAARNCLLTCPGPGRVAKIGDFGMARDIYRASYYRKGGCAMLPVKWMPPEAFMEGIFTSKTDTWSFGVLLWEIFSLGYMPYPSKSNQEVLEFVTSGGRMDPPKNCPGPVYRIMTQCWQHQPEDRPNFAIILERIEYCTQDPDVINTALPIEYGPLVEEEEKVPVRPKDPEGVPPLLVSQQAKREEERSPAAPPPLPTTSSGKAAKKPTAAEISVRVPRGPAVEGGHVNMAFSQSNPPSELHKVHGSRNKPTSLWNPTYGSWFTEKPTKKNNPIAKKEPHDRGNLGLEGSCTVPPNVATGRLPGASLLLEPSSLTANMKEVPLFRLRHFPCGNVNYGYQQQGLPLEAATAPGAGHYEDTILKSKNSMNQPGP
T1 sequence (Q00526 whole entry): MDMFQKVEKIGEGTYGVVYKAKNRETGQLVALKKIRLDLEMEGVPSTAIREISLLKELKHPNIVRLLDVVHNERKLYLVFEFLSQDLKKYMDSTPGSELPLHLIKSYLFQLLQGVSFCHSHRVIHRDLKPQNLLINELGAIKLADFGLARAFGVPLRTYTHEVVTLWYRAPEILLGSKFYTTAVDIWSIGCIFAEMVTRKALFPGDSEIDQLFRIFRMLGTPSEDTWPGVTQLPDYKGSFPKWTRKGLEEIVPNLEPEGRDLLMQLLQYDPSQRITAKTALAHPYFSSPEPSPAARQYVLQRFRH
T1 sequence (P24864 whole entry partner): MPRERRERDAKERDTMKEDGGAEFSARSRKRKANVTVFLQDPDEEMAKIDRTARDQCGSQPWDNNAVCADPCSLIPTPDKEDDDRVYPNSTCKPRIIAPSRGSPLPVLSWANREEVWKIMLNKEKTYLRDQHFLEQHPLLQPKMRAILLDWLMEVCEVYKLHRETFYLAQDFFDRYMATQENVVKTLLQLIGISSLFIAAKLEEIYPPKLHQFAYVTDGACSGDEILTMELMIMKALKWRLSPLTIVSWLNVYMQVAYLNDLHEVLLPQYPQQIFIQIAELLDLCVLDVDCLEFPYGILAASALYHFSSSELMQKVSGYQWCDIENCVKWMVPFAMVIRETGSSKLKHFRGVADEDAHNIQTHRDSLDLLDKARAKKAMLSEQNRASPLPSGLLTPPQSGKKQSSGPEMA
T7 sequence (Q16288 32-839): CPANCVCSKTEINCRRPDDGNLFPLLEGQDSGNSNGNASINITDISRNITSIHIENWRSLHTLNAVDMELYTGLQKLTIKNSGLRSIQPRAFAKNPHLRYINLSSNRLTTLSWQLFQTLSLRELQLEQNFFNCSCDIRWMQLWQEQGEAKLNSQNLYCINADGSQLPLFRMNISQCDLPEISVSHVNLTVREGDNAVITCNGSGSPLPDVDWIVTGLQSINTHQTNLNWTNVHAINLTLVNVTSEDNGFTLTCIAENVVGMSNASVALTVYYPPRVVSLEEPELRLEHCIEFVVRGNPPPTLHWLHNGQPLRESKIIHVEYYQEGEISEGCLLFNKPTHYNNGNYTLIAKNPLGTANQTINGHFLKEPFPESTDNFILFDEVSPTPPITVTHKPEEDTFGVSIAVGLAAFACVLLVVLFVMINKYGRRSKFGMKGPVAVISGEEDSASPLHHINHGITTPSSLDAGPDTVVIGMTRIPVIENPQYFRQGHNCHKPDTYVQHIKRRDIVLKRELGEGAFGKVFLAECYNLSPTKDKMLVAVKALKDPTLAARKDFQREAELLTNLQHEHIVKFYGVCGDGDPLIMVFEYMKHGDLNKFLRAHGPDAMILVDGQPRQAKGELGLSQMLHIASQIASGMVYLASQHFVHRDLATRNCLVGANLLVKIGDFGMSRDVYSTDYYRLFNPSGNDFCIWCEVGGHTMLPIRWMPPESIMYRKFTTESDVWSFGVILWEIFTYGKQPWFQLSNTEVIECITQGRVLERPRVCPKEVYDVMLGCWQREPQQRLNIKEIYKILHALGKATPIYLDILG
T10 sequence (Q15418 whole entry): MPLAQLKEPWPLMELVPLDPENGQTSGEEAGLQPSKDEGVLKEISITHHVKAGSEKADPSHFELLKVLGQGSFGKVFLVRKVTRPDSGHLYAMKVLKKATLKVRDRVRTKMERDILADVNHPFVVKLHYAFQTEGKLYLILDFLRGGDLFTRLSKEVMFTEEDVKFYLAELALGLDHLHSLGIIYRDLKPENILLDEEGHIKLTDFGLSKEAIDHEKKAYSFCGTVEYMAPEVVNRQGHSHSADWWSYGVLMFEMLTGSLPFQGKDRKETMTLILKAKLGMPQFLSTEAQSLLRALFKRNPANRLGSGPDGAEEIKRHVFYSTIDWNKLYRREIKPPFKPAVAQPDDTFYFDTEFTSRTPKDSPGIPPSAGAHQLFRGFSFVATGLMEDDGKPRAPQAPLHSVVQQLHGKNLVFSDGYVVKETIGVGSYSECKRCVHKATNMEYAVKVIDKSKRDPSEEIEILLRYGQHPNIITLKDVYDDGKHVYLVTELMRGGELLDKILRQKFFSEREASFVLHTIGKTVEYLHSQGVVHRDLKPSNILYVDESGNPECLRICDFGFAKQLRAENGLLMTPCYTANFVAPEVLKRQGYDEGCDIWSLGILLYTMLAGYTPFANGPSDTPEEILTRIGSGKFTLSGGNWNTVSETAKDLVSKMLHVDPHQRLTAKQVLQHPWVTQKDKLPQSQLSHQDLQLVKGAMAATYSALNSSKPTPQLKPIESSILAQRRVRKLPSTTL
T4 sequence (P49841 whole entry): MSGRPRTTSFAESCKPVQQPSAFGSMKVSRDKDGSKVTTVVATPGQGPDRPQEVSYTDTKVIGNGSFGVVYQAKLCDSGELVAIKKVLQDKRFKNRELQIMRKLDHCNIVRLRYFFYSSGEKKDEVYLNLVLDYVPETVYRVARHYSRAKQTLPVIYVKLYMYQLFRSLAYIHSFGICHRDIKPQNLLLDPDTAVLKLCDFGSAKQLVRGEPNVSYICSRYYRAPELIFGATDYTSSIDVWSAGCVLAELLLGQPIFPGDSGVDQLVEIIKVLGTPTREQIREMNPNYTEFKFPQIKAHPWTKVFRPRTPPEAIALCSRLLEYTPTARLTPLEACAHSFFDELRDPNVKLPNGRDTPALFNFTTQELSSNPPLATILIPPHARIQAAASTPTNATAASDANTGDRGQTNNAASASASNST

As for `COc1cc(-c2cc(-c3cccc(O)c3)cnc2N)cc(OC)c1OC` [K02288, 3-[6-amino-5-(3,4,5-trimethoxy-phenyl)-pyridin-3-yl]-phenol], the inhibition – broadly, the drop in the measured response relative to a control, in per cent – at 0.1 µM was 1.6% at CDK3/cycE; -3% on PAK3; -1% on FGFR1; 0.5% on GSK3β; -6% on EPHA3; -1% at CHEK1. Further, the inhibition at 0.1 µM was 2.7% on TRKC, 0% at PDK1, -1% on ALK and 0.8% at RSK1. For the same compound, the inhibition at 1 µM at CDK3/cycE was -91%; on PAK3, -2%; on FGFR1 it was -3%; at GSK3β, 1.6%; on EPHA3, 4.3%; on CHEK1, -2%. The inhibition at 1 µM at TRKC was found to be 2.4%; on PDK1, 0.5%; on ALK it was 2.5%; on RSK1, 1.8%.
As to `c1ccc2c(-c3cnn4cc(-c5ccc(N6CCNCC6)cc5)cnc34)ccnc2c1` [LDN-193189], the inhibition at 0.1 µM came to 1.6% on CDK3/cycE; 2.9% on PAK3; 3.4% at FGFR1; 2.7% at GSK3β; 2.2% at EPHA3; 2.9% at CHEK1. Moreover, the inhibition at 0.1 µM at TRKC is 1.6%; at PDK1 it was 1.1%; at ALK it was 3.7%; at RSK1 it was 0.6%. The inhibition at 1 µM is 7% on CDK3/cycE; 1.8% at PAK3; 19% at FGFR1; 2.1% on GSK3β; 6.3% on EPHA3; 0.3% at CHEK1. In addition, the inhibition at 1 µM at TRKC was determined as 3.9%; on PDK1, 1.9%; on ALK it was 12%; at RSK1, 8%.

For the origin of these results see publication PMC3639963, “A New Class of Small Molecule Inhibitor of BMP Signaling” (PLoS ONE, 2013).
